Measured values as given in ChEMBL document CHEMBL4393720, “Design, synthesis and biological evaluation of bromophenol-thiazolylhydrazone hybrids inhibiting the interaction of translation initiation factors eIF4E/eIF4G as multifunctional agents for cancer treatment” (Eur J Med Chem, 2019).
Activity calls are given as the source filed them. No cut-off for these calls is given here.

What was measured:
U-87 MG = test: Antiproliferative activity against human U87MG cells assessed as inhibition of cell growth incubated for 48 hrs by MTT assay; format: functional, cell-based, U-87MG ATCC
[1] = biological target: Eukaryotic translation initiation factor 4E (Homo sapiens) (UniProt P06730); test: Inhibition of eIF4E phosphorylation in human A549 cells assessed as decrease in cyclin D1 level at 1 to 5 uM incubated for 48 hrs by western blot analysis; format: cell-based
[2] = Inhibition of PI3K/AKT/mTOR in human A549 cells assessed as decrease in 4EBP1 phosphorylation at 1 to 5 uM incubated for 48 hrs by western blot analysis; format: cell-based
A549 [3] = test: Induction of mitochondrial membrane potential loss in human A549 cells at 1 to 5 uM incubated for 48 hrs by JC-1 staining based flow cytometer analysis; format: functional, cell-based
[4] = Inhibition of PI3K/Akt/mTOR signalling pathway in human A549 cells assessed as reduction in Akt phosphorylation at 1 to 5 uM incubated for 48 hrs by Western blot analysis; format: cell-based
A549 [5] = test: Induction of autophagy in human A549 cells infected with Ad-mCherry-GFP-LC3B assessed as LC3 aggregate formation at 2.5 uM incubated for 48 hrs by fluorescence microscopy; format: functional, cell-based
A549 [6] = test: Induction of autophagy in human A549 cells assessed as change in […] expression at 1 to 5 uM incubated for 48 hrs by Western blot analysis; format: functional, cell-based
A549 [7] = test: Induction of apoptosis in human A549 cells assessed as nuclear shrinkage and chromatin condensation at 1 to 5 uM incubated for 48 hrs by Hoechst 33258 staining based fluorescence microscopy; format: functional, cell-based
A549 [8] = test: Induction of apoptosis in human A549 cells assessed as activation of caspase 3 at 1 to 5 uM incubated for 48 hrs by Western blot analysis; format: functional, cell-based
A549 [9] = test: Induction of apoptosis in human A549 cells at 2.5 uM incubated for 48 hrs in presence of pan caspase inhibitor, Z-VAD-FMK by annexin-V and propidium iodide staining based flow cytometric analysis; format: functional, cell-based
A549 [10] = test: Inhibition of colony formation in human A549 cells incubated for 10 days by crystal violet staining based assay; format: functional, cell-based
[11] = Toxicity in athymic nude mouse xenografted with human A549 cells assessed as changes in body weight at 25 to 50 mg/kg, ip administered once daily for 21 days; format: organism-based; details: in vivo, 504 h
A549 [12] = test: Decrease in phosphorylation of Ki67 in human A549 cells xenografted in athymic nude mouse at 25 to 50 mg/kg, ip administered once daily for 21 days by immunocytochemistry; format: functional, organism-based
A549 [13] = test: Antitumor activity against human A549 cells xenografted in athymic nude mouse assessed as necrosis of tumor cells and loosely packed cells at 25 to 50 mg/kg, ip administered once daily for 21 days by hematoxylin and eosin staining based microscopic analysis; format: functional, organism-based
[14] = Acute toxicity in SPF Kunming mouse assessed as mortality at 500 to 2000 mg/kg, po administered as single dose measured for 14 days; format: organism-based; details: in vivo, 336 h
[15] = Acute toxicity in SPF Kunming mouse assessed as body weight at 500 mg/kg, po administered as single dose measured at day 7 (reference value: 30.2g); format: organism-based; details: in vivo
[16] = Acute toxicity in SPF Kunming mouse assessed as body weight at 1000 mg/kg, po administered as single dose measured at day 7 (reference value: 30.2g); format: organism-based; details: in vivo
[17] = Acute toxicity in SPF Kunming mouse assessed as body weight at 2000 mg/kg, po administered as single dose measured at day 7 (reference value: 30.2g); format: organism-based; details: in vivo
[18] = Acute toxicity in SPF Kunming mouse assessed as body weight at 1000 mg/kg, po administered as single dose measured at day 14 (reference value: 34.7g); format: organism-based; details: in vivo
[19] = Acute toxicity in SPF Kunming mouse assessed as body weight at 2000 mg/kg, po administered as single dose measured at day 14 (reference value: 34.7g); format: organism-based; details: in vivo
[20] = Subacute toxicity in SPF Kunming mouse assessed as body weight at 2000 mg/kg, po administered once a day for 14 days (reference value: 32g); format: organism-based; details: in vivo, 336 h
[21] = Toxicity in athymic nude mouse xenografted with human A549 cells assessed as effect on spleen morphological changes at 25 to 50 mg/kg, ip administered once daily for 21 days by H and E staining based assay; format: organism-based; details: in vivo, 504 h
[22] = Toxicity in athymic nude mouse xenografted with human A549 cells assessed as effect on kidney morphological changes at 25 to 50 mg/kg, ip administered once daily for 21 days by H and E staining based assay; format: organism-based; details: in vivo, 504 h
[23] = Toxicity in athymic nude mouse xenografted with human A549 cells assessed as effect on heart morphological changes at 25 to 50 mg/kg, ip administered once daily for 21 days by H and E staining based assay; format: organism-based; details: in vivo, 504 h
[24] = Toxicity in athymic nude mouse xenografted with human A549 cells assessed as effect on lung morphological changes at 25 to 50 mg/kg, ip administered once daily for 21 days by H and E staining based assay; format: organism-based; details: in vivo, 504 h
[25] = Tmax in female Sprague-Dawley rat at 2 mg/kg, iv measured up to 24 hrs by LC/MS-MS analysis; format: ADME, organism-based; details: in vivo
[26] = Tmax in male Sprague-Dawley rat at 2 mg/kg, iv measured up to 24 hrs by LC/MS-MS analysis; format: ADME, organism-based; details: in vivo
[27] = Cmax in male Sprague-Dawley rat at 2 mg/kg, iv measured up to 24 hrs by LC/MS-MS analysis; format: ADME, organism-based; design: dose 2 mg/kg, route intravenous; details: in vivo
[28] = AUC (0 to 24 hrs) in male Sprague-Dawley rat at 2 mg/kg, iv measured up to 24 hrs by LC/MS-MS analysis; format: ADME, organism-based; design: dose 2 mg/kg, time < 24 hr, route intravenous; details: in vivo
[29] = MRT in male Sprague-Dawley rat at 2 mg/kg, iv measured up to 24 hrs by LC/MS-MS analysis; format: ADME, organism-based; details: in vivo
[30] = Volume of distribution in steady state in male Sprague-Dawley rat at 2 mg/kg, iv measured up to 24 hrs by LC/MS-MS analysis; format: ADME, organism-based; details: in vivo, read-out: Vdss
[31] = Cmax in female Sprague-Dawley rat at 2 mg/kg, iv measured up to 24 hrs by LC/MS-MS analysis; format: ADME, organism-based; design: dose 2 mg/kg, route intravenous; details: in vivo
[32] = Half life in female Sprague-Dawley rat at 2 mg/kg, iv measured up to 24 hrs by LC/MS-MS analysis; format: ADME, organism-based; details: in vivo
[33] = MRT in female Sprague-Dawley rat at 2 mg/kg, iv measured up to 24 hrs by LC/MS-MS analysis; format: ADME, organism-based; details: in vivo
[34] = Cmax in male Sprague-Dawley rat at 10 mg/kg, po measured up to 24 hrs by LC/MS-MS analysis; format: ADME, organism-based; design: dose 10 mg/kg, route oral; details: in vivo
[35] = Oral bioavailability in male Sprague-Dawley rat at 10 mg/kg measured up to 24 hrs by LC/MS-MS analysis; format: ADME, organism-based; details: in vivo
[36] = MRT in female Sprague-Dawley rat at 10 mg/kg, po measured up to 24 hrs by LC/MS-MS analysis; format: ADME, organism-based; details: in vivo
A549 [37] = test: In vivo inhibition of PI3K/Akt/mTOR in human A549 cells xenografted in athymic nude mouse assessed as decrease in phosphorylation of 4EBP1 at 25 to 50 mg/kg, ip administered once daily for 21 days by immunocytochemistry; format: functional, organism-based

Chain of Eukaryotic translation initiation factor 4E (Homo sapiens) (P06730 whole entry): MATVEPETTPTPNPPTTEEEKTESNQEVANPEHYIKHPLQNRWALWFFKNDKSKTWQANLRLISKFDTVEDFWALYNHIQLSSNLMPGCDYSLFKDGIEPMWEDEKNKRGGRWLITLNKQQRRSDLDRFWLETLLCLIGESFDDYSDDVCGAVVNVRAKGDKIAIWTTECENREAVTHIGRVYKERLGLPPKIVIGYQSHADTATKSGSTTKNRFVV

SMILES: Fc1ccc(/C=N/Nc2nc(-c3ccc(C(F)(F)F)cc3)cs2)cc1F
- IC50 (U-87 MG): 29.9 µM
- inhibition [1]: Active
- inhibition [2]: Active
- Activity (A549 [3]): Active
- inhibition [4]: Active
- Activity (A549 [5]): Active
- Activity (A549 [6]): Active
- Activity (A549 [7]): Active
- Activity (A549 [8]): Active
- Activity (A549 [9]): inactive
- inhibition (A549 [10]): Dose-dependent effect
- Activity [11]: Non-Toxic
- inhibition (A549 [12]): Active
- Activity (A549 [13]): Active
- Activity [14]: Non-Toxic
- Activity [15]: 29.1 g
- Activity [16]: 30.5 g
- Activity [17]: 29.9 g
- Activity [18]: 34.9 g
- Activity [19]: 35 g
- Activity [20]: 30.7 g
- Activity [21]: Non-Toxic
- Activity [22]: Non-Toxic
- Activity [23]: Non-Toxic
- Activity [24]: Non-Toxic
- Tmax [25]: 2 h
- Tmax [26]: 2 h
- Cmax [27]: 149 µM
- AUC(0-t) at 24 h [28]: 155 µM·h
- MRT [29]: 4.42 h
- Vd [30]: 0.12 L/kg
- Cmax [31]: 126 µM
- half-life [32]: 3.25 h
- MRT [33]: 5.09 h
- Cmax [34]: 0.65 µM
- bioavailability [35]: 17.2%
- MRT [36]: 1.62 h
- inhibition (A549 [37]): Active
